BindingDB's records for doi:10.1016/j.bmc.2011.05.013 (University of Auckland, 2011)

Experiment: Inhibition of recombinant perforin mediated lysis of human Jurkat cells pre-incubated for 30 mins with perforin followed by incubation with Jurkat cells at 37 degC for 4 hrs in presence of 0.1% BSA by [51Cr] release assay

| Structure (SMILES) | IC50 |
| --- | --- |
| CNC(=O)CCc1ccc(-c2c(C#N)c(N)n3c(nc4ccccc43)c2C#N)cc1 | > 20 µM |
| CC(C)NC(=O)COc1ccc(-c2c(C#N)c(N)n3c(nc4ccccc43)c2C#N)cc1 | 13.2 µM |
| Cc1ccc2nc(C(C#N)=Cc3ccc(OCC(N)=O)cc3)[nH]c2c1C | > 20 µM |
| CN(C)C(=O)c1ccc(-c2c(C#N)c(N)n3c(nc4ccccc43)c2C#N)cc1 | > 20 µM |
| N#Cc1c(-c2ccc(OCC(=O)NCCO)cc2)c(C#N)c2nc3ccccc3n2c1N | 8.25 µM |
| CCNC(=O)COc1ccc(-c2c(C#N)c(N)n3c(nc4ccccc43)c2C#N)cc1 | 7.44 µM |
| N#Cc1c(-c2ccc(OCC(=O)NCC(O)CO)cc2)c(C#N)c2nc3ccccc3n2c1N (configuration not stated) | > 20 µM |
| N#Cc1c(-c2ccc(C(=O)NCCN3CCOCC3)cc2)c(C#N)c2nc3ccccc3n2c1N | 10 µM |
| CCCNC(=O)COc1ccc(-c2c(C#N)c(N)n3c(nc4ccccc43)c2C#N)cc1 | 13.9 µM |
| CN(C)CCNC(=O)c1ccc(-c2c(C#N)c(N)n3c(nc4ccccc43)c2C#N)cc1 | > 20 µM |
| N#Cc1c(-c2ccc(OCC(=O)NCCCO)cc2)c(C#N)c2nc3ccccc3n2c1N | > 20 µM |
| CN(C)C(=O)CCc1ccc(-c2c(C#N)c(N)n3c(nc4ccccc43)c2C#N)cc1 | > 20 µM |
| N#Cc1c(-c2ccc(OCC(=O)NCCc3ccncc3)cc2)c(C#N)c2nc3ccccc3n2c1N | 10 µM |
| N#CC(=Cc1ccc(OCC(N)=O)cc1)c1nc2ccccc2[nH]1 | > 20 µM |
| N#Cc1c(-c2ccc(C(=O)NCCc3ccncc3)cc2)c(C#N)c2nc3ccccc3n2c1N | 10.5 µM |
| Cc1cccc2[nH]c(C(C#N)=Cc3ccc(OCC(N)=O)cc3)nc12 | > 20 µM |
| N#Cc1c(-c2ccc(C(=O)NCCN3CCCCC3)cc2)c(C#N)c2nc3ccccc3n2c1N | > 20 µM |
| COc1cccc2[nH]c(C(C#N)=Cc3ccc(OCC(N)=O)cc3)nc12 | > 20 µM |
| COc1cccc2c1nc1c(C#N)c(-c3ccc(OCC(N)=O)cc3)c(C#N)c(N)n12 | 7.49 µM |
| CN(C)C(=O)COc1ccc(-c2c(C#N)c(N)n3c(nc4ccccc43)c2C#N)cc1 | 6.89 µM |
| CC(O)CNC(=O)COc1ccc(-c2c(C#N)c(N)n3c(nc4ccccc43)c2C#N)cc1 (configuration not stated) | > 20 µM |

Results, then the molecule that gave them:

| IC50 | Structure (SMILES) |
| --- | --- |
| 5.21 µM | Cc1ccc2c(nc3c(C#N)c(-c4ccc(OCC(N)=O)cc4)c(C#N)c(N)n32)c1C |
| 5.67 µM | N#Cc1c(-c2ccc(OCC(N)=O)cc2)c(C#N)c2nc3c(Cl)cccc3n2c1N |
| 3.08 µM | N#Cc1c(-c2ccc(C(=O)NCCO)cc2)c(C#N)c2nc3ccccc3n2c1N |
| 3.16 µM | CCNC(=O)c1ccc(-c2c(C#N)c(N)n3c(nc4ccccc43)c2C#N)cc1 |
| 3 µM | N#Cc1c(-c2ccc(C(N)=O)cc2)c(C#N)c2nc3ccccc3n2c1N |
| 3.24 µM | N#Cc1c(-c2ccc(C(=O)NCC(O)CO)cc2)c(C#N)c2nc3ccccc3n2c1N (configuration not stated) |
| 2.87 µM | N#Cc1c(-c2ccc(OCCO)cc2)c(C#N)c2nc3ccccc3n2c1N |
| 3.53 µM | Cc1cc2nc3c(C#N)c(-c4ccc(OCC(N)=O)cc4)c(C#N)c(N)n3c2cc1C |
| 4.56 µM | CNC(=O)COc1ccc(-c2c(C#N)c(N)n3c(nc4ccccc43)c2C#N)cc1 |
| 6.72 µM | N#CC(=Cc1ccc(OCC(N)=O)cc1)c1nc2cccc(Cl)c2[nH]1 |
| 1.04 µM | CNC(=O)c1ccc(-c2c(C#N)c(N)n3c(nc4ccccc43)c2C#N)cc1 |
| 5.55 µM | CC(O)CNC(=O)c1ccc(-c2c(C#N)c(N)n3c(nc4ccccc43)c2C#N)cc1 (configuration not stated) |
| 4.18 µM | N#Cc1c(-c2ccc(C(=O)NCCCO)cc2)c(C#N)c2nc3ccccc3n2c1N |
| 6.87 µM | Cc1cccc2c1nc1c(C#N)c(-c3ccc(OCC(N)=O)cc3)c(C#N)c(N)n12 |
| 5.14 µM | Cc1cc2nc(C(C#N)=Cc3ccc(OCC(N)=O)cc3)[nH]c2cc1C |
| 5.19 µM | N#Cc1c(-c2ccc(OCC(N)=O)cc2)c(C#N)c2nc3ccccc3n2c1N |
